Test results: PMC7351026, “Serum Half-Lives for Short- and Long-Chain Perfluoroalkyl Acids after Ceasing Exposure from Drinking Water Contaminated by Firefighting Foam” (Environmental Health Perspectives, 2020)
Marks after values point to notes of the source that are not given here.

What was measured:
[1] = cited from earlier work
[2] = Population average serum elimination rate and half-life (linear mixed model, one compartment, first-order)
Protocol: (§1) Serum PFAS concentrations were log-transformed. Time was calculated as the elapsed days between supply of clean bottled water and […] blood sampling. We assumed one compartment, first-order elimination kinetics. In this kinetic model, the body is considered as one homogeneous volume in which mixing is instantaneous and from which PFAS could be absorbed, transferred, and eliminated according to the rate of elimination that is proportional to the concentration of PFAS in the body. Two methods were used to estimate serum elimination rate constant (k) and half-life for each PFAS:
Briefly, in the linear mixed model In Cij=αi+tijβ+Xiβ′+εij, Cij is the serum concentration of PFAS for individual i at sampling round j; αi is the subject-specific intercept (random intercept); tij is the time; β is the average slope; Xi is a vector of fixed covariates for individual i; β′ stands for the fixed effect coefficients; and εij is the random error term. We modified the model by excluding the subject-specific slope (random slope) due to a failure to converge after inclusion, which may be due to the limited number of study subjects. The negative value of the average slope ( −β ) is the population average k, and average half-life is calculated as ln2/k .
In the linear mixed model, we included only age and sex as covariates. We based covariate selection on factors that could conceivably confound the PFAS half-life estimation. Working task, duration of employment, number of glasses of water per day, blood donation, and pregnancy before mitigation of PFAS exposure from drinking water can influence the initial serum levels but would not be expected to influence the PFAS half-life.
A sensitivity analysis was performed using the same linear mixed model but with Cij as the serum levels after subtracting general background levels (using the median levels obtained from the nonexposed reference population). If the serum PFAS levels after subtraction were lower than the half of the background levels, they were replaced with half of the background levels.

[3] = Individual serum elimination rate and half-life (linear regression per employee); conditions: for Elimination rate / HL (half-life): individual estimate
Protocol: as §1
Method 2: For estimation of individual k, linear regression was used to derive the slope ( β ) of the logarithm of serum concentrations vs. time for each employee. The negative value of the slope ( −β ) for each individual was equivalent to the individual k, and individual serum elimination half-life was calculated as ln2/k for each PFAS. If β was positive (i.e., PFAS concentrations tended to increase over the five samplings), the half-life was not calculated.

[4] = Serum/water ratio; assay type: in vivo, human; conditions: median serum level of first samples (26 employees) divided by airport drinking-water level
Protocol: The ratio of serum and water concentration for each PFAS (serum/water ratio) was calculated based on median serum level in the first serum sample obtained from all 26 airport employees divided by the drinking-water concentration. This ratio is an indicator of PFAS accumulation in body.

[5] = population average, model with original serum levels, age and sex as covariates
[6] = population average, model with serum levels after subtraction of background exposure (sensitivity analysis)

Compound | Half-life (95% CI) [2, 5] | Elimination rate ([3]; subject 1, 5 samples) [yearly] | HL (half-life) ([3]; subject 1, 5 samples) [year] | Elimination rate ([3]; subject 2, 5 samples) [yearly] | Elimination rate ([3]; subject 3, 5 samples) [yearly] | HL (half-life) ([3]; subject 3, 5 samples) [year] | Elimination rate ([3]; subject 4, 5 samples) [yearly] | Elimination rate ([3]; subject 5, 5 samples) [yearly] | Elimination rate ([3]; subject 6, 4 samples) [yearly] | Elimination rate ([3]; subject 7, 5 samples) [yearly] | Elimination rate ([3]; subject 8, 5 samples) [yearly] | Elimination rate ([3]; subject 9, 5 samples) [yearly] | Elimination rate ([3]; subject 10, 5 samples) [yearly] | HL (half-life) ([3]; subject 10, 5 samples) [year] | Elimination rate ([3]; subject 11, 5 samples) [yearly] | HL (half-life) ([3]; subject 11, 5 samples) [year] | Elimination rate ([3]; subject 12, 5 samples) [yearly] | Elimination rate ([3]; subject 13, 5 samples) [yearly] | Elimination rate ([3]; subject 14, 4 samples) [yearly] | Elimination rate ([3]; subject 15, 5 samples) [yearly] | also measured
O=S(=O)(O)C(F)(F)C(F)(F)C(F)(F)C(F)(F)F [PFBS, perfluorobutane sulfonic acid] | 0.12 (0.1, 0.15)^d year | 3.2 | 0.2 | 4.0 | 5.1 | 0.1 | 3.1 | 3.0 | 2.9 | 6.2 | 4.4 | 11.7 | 3.8 | 0.2 | 7.1 | 0.1 | 5.4 | 6.2 | 10.7 | 5.7 | Half-life (geometric mean) ([1]; occupationally exposed workers followed up to 180 d, ref Olsen et al. 2009): 25.8 days; Constant elimination rate (95% CI) [2, 5]: 5.96 (4.65, 7.27) yearly; HL (half-life) ([3]; subject 2, 5 samples): 0.2 year; HL (half-life) ([3]; subject 4, 5 samples): 0.2 year; HL (half-life) ([3]; subject 5, 5 samples): 0.2 year; HL (half-life) ([3]; subject 6, 4 samples): 0.2 year; HL (half-life) ([3]; subject 7, 5 samples): 0.1 year; HL (half-life) ([3]; subject 8, 5 samples): 0.2 year; HL (half-life) ([3]; subject 9, 5 samples): 0.1 year; HL (half-life) ([3]; subject 12, 5 samples): 0.1 year; HL (half-life) ([3]; subject 13, 5 samples): 0.1 year; HL (half-life) ([3]; subject 14, 4 samples): 0.1 year; HL (half-life) ([3]; subject 15, 5 samples): 0.1 year; Elimination rate ([3]; subject 16, 5 samples): 3.6 yearly; HL (half-life) ([3]; subject 16, 5 samples): 0.2 year; Elimination rate ([3]; subject 17, 5 samples): 10.4 yearly; HL (half-life) ([3]; subject 17, 5 samples): 0.1 year; Serum/water ratio [4]: 1.65
O=S(=O)(O)C(F)(F)C(F)(F)C(F)(F)C(F)(F)C(F)(F)C(F)(F)C(F)(F)F [PFHpS, perfluoroheptane sulfonic acid] | 1.46 (0.83, 6.25) year | 0.5 | 1.3 | 0.2 | 0.2 | 3.0 | 0.001 | −0.3 | 0.1 | −0.04 | −0.6 | 0.05 | 0.4 | 1.8 | 1.7 | 0.4 | 0.6 | −0.2 | 1.0 | 1.6 | Average half-life ([1]; highly exposed general population from Ronneby, Sweden, 108 Swedes, 5 y follow-up, ref Li et al. 2019): 4.7 y; Average half-life longer than that of the PFCA with same number of carbon atoms ([2]; PFHpS vs PFHpA, PFOS vs PFOA): ~1.3 y; Average serum half-life ([2]; population average, linear mixed model with original serum levels, 17 airport employees after end of drinking-water exposure): 1.46 y; Constant elimination rate (95% CI) [2, 5]: 0.48 (0.11, 0.84) yearly; Constant elimination rate (95% CI) [2, 6]: 0.51 (0.12, 0.9) yearly; Half-life (95% CI) [2, 6]: 1.35 (0.77, 5.71) year; Reduction of half-life estimation after subtraction of background levels ([2]; sensitivity analysis vs model with original serum levels): 8%; HL (half-life) ([3]; subject 2, 5 samples): 3.4 year; HL (half-life) ([3]; subject 6, 4 samples): 6.1 year; HL (half-life) ([3]; subject 9, 5 samples): 15 year; HL (half-life) ([3]; subject 12, 5 samples): 1.1 year; HL (half-life) ([3]; subject 14, 4 samples): 0.7 year; HL (half-life) ([3]; subject 15, 5 samples): 0.4 year; Elimination rate ([3]; subject 16, 5 samples): 0.1 yearly; HL (half-life) ([3]; subject 16, 5 samples): 12 year; Elimination rate ([3]; subject 17, 5 samples): 1.7 yearly; HL (half-life) ([3]; subject 17, 5 samples): 0.4 year; Serum/water ratio [4]: 81.3
O=C(O)C(F)(F)C(F)(F)C(F)(F)C(F)(F)C(F)(F)F [PFHxA, perfluorohexanoic acid] | 1.63 (NA) year | 0.2 | 4.1 | −0.1 | 1.6 | 0.4 | −0.6 | −1.7 | −1.6 | 1.5 | −0.7 | −0.2 | 0.4 | 1.9 | 2.8 | 0.2 | −0.3 | −0.7 | −0.5 | 2.7 | Apparent elimination half-life ([1]; whole blood, seven ski wax technicians, ref Russell et al. 2013): 32 days; Individuals without decrement in serum concentration (no individual estimated half-life) ([3]; 5-month follow-up, 17 employees): 53%; HL (half-life) ([3]; subject 7, 5 samples): 0.5 year; HL (half-life) ([3]; subject 15, 5 samples): 0.3 year; Elimination rate ([3]; subject 16, 5 samples): 1.1 yearly; HL (half-life) ([3]; subject 16, 5 samples): 0.6 year; Elimination rate ([3]; subject 17, 5 samples): 2.5 yearly; HL (half-life) ([3]; subject 17, 5 samples): 0.3 year; Serum/water ratio [4]: 1.15
